The molecules below were run against T1, DLK (Homo sapiens, UniProt Q12852). Conditions: read-out: DLK (Ki) μM; TR-FRET; 5 nM GST-tagged DLK (catalytic domain aa 1-520), 40 nM HIS-MKK4 K131M substrate, 30 μM ATP, 60 minutes.
T1 sequence (Q12852 1-520): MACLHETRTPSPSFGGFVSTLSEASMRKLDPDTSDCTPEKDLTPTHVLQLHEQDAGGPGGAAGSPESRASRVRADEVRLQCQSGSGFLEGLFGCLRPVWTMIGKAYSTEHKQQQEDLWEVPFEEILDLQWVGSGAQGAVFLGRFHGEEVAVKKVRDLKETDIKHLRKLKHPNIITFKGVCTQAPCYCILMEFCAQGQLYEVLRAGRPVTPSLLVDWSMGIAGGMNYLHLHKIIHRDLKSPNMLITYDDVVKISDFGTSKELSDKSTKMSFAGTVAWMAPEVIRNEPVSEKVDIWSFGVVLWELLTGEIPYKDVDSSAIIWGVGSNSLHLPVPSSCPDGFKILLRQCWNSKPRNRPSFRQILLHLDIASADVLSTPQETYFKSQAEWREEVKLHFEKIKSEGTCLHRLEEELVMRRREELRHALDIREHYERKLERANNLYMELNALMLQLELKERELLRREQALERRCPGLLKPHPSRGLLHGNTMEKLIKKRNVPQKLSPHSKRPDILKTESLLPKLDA
Work on `FC1(F)CCC(n2nc(-c3cnc4[nH]cc(C(F)(F)F)c4c3)cc2C2CN(C3COC3)C2)C1` (stereo not drawn) [Compound 56, 5-(1-(3,3-difluorocyclopentyl)-5-(1-(oxetan-3-yl)azetidin-3-yl)-1H-pyrazol-3-yl)-3-(trifluoromethyl)-1H-pyrrolo[2,3-b]pyridine] yielded a Ki of 0.013 µM.
Molecule `CC(C)n1nc(-c2cnc3[nH]cc(F)c3c2)cc1C1CN(C2COC2)C1` [Compound 58, 3-fluoro-5-(1-isopropyl-5-(1-(oxetan-3-yl)azetidin-3-yl)-1H-pyrazol-3-yl)-1H-pyrrolo[2,3-b]pyridine] has a Ki of 0.64 µM.
With `CC(C)n1nc(-c2cnc3[nH]cc(C#N)c3c2)cc1C1CN(C2COC2)C1` [Compound 59, 5-(1-isopropyl-5-(1-(oxetan-3-yl)aze-tidin-3-yl)-1H-pyrazol-3-yl)-1H-pyrro-lo[2,3-b]pyridine-3-carbonitrile] the Ki was 0.31 µM.
`CC(C)n1nc(-c2cnc(N)c(C(F)(F)F)c2)cc1C1CN(C2COC2)C1` [Compound 60, 5-(1-isopropyl-5-(1-(oxetan-3-yl)azetidin-3-yl)-1H-pyrazol-3-yl)-3-(trifluoromethyl)pyridin-2-amine] showed a Ki of 0.027 µM.
`Cc1c[nH]c2ncc(-c3cc(C4CCN(C5COC5)C4)n(C)n3)cc12` (stereo not drawn) [Compound 63, 3-methyl-5-(1-methyl-5-(1-(oxetan-3-yl)pyrrolidin-3-yl)-1H-pyrazol-3-yl)-1H-pyrrolo[2,3-b]pyridine] gave a Ki of 0.034 µM.
Work on `Cc1c[nH]c2ncc(-c3cc(C4CCN(C5COC5)C4)n(C(C)C)n3)cc12` (stereo not drawn) [Compound 64, 5-(1-isopropyl-5-(1-(oxetan-3-yl)pyr-rolidin-3-yl)-1H-pyrazol-3-yl)-3-meth-yl-1H-pyrrolo[2,3-b]pyridine] yielded a Ki of 0.0045 µM.
Work on `CC(C)n1nc(-c2cnc3[nH]cc(F)c3c2)cc1C1CCN(C2COC2)C1` (stereo not drawn) [Compound 66, 3-fluoro-5-(1-isopropyl-5-(1-(oxetan-3-yl)pyrrolidin-3-yl)-1H-pyrazol-3-yl)-1H-pyrrolo[2,3-b]pyridine] yielded a Ki of 0.11 µM.
`CC(C)n1nc(-c2cnc(N)c(C(F)(F)F)c2)cc1C1CCN(C2COC2)C1` (stereo not drawn) [Compound 67, 5-(1-isopropyl-5-(1-(oxetan-3-yl)pyr-rolidin-3-yl)-1H-pyrazol-3-yl)-3-(tri-fluoromethyl)pyridin-2-amine] was tested, and the Ki was 0.03 µM.
`Cc1c[nH]c2ncc(-c3cc(C4CCN(C5COC5)CC4)n(C(C)C)n3)cc12` [Compound 69, 5-(1-isopropyl-5-(1-(oxetan-3-yl)pipe-ridin-4-yl)-1H-pyrazol-3-yl)-3-meth-yl-1H-pyrrolo[2,3-b]pyridine] was tested, and the Ki was 0.0037 µM.
`CC(C)n1nc(-c2cnc3[nH]cc(C(F)(F)F)c3c2)cc1C1CCN(C2COC2)CC1` [Compound 70, 5-(1-isopropyl-5-(1-(oxetan-3-yl)pipe-ridin-4-yl)-1H-pyrazol-3-yl)-3-(tri-fluoromethyl)-1H-pyrrolo[2,3-b]pyri-dine] was tested, and the Ki was 0.0023 µM.
With `Nc1ncc(-c2cc(C3CCN(C4COC4)CC3)n(C3CCCC3)n2)cc1Cl` [Compound 71, 3-chloro-5-(1-cyclopentyl-5-(1-(oxetan-3-yl)piperidin-4-yl)-1H-pyrazol-3-yl)pyridin-2-amine] the Ki was 0.27 µM.
Molecule `CC(C)n1nc(-c2cnc3[nH]cc(Cl)c3c2)cc1C1CCN(C2COC2)CC1` [Compound 72, 3-chloro-5-(1-isopropyl-5-(1-(oxetan-3-yl)piperidin-4-yl)-1H-pyrazol-3-yl)-1H-pyrrolo[2,3-b]pyridine] has a Ki of 0.015 µM.
For `CC(C)n1nc(-c2cnc3[nH]cc(F)c3c2)cc1C1CCN(C2COC2)CC1` [Compound 75, 3-fluoro-5-(1-isopropyl-5-(1-(oxetan-3-yl)piperidin-4-yl)-1H-pyrazol-3-yl)-1H-pyrrolo[2,3-b]pyridine], the Ki was 0.096 µM.
Molecule `CC(C)n1nc(-c2cnc(N)c(C(F)(F)F)c2)cc1C1CCN(C2COC2)CC1` [Compound 76, 5-(1-isopropyl-5-(1-(oxetan-3-yl)piperidin-4-yl)-1H-pyrazol-3-yl)-3-(trifluoromethyl)pyridin-2-amine] has a Ki of 0.15 µM.
`CC(C)n1nc(-c2cnc3[nH]cc(C#N)c3c2)cc1C1CCN(C2COC2)CC1` [Compound 77, 5-(1-isopropyl-5-(1-(oxetan-3-yl)pipe-ridin-4-yl)-1H-pyrazol-3-yl)-1H-pyrro-lo[2,3-b]pyridine-3-carbonitrile] gave a Ki of 0.12 µM.
With `Nc1ncc(-c2cc(C3CCN(C4COC4)CC3)n(C3CCCC3)n2)cc1C(F)(F)F` [Compound 81, 5-(1-cyclopentyl-5-(1-(oxetan-3-yl)piperidin-4-yl)-1H-pyrazol-3-yl)-3-(trifluoromethyl)pyridin-2-amine] the Ki was 0.084 µM.
For `CCOc1cc(-c2cc(C3CCN(C4COC4)CC3)n(C(C)C)n2)cnc1N` [Compound 83, 3-ethoxy-5-(1-isopropyl-5-(1-(oxetan-3-yl)piperidin-4-yl)-1H-pyrazol-3-yl)pyridin-2-amine], the Ki was 0.39 µM.
`CC(C)Oc1cc(-c2cc(C3CCN(C4COC4)CC3)n(C(C)C)n2)cnc1N` [Compound 84, 3-isopropoxy-5-(1-isopropyl-5-(1-(oxe-tan-3-yl)piperidin-4-yl)-1H-pyrazol-3-yl)pyridin-2-amine] showed a Ki of 0.26 µM.
For `CCOc1cc(-c2cc(C3CCN(C4COC4)CC3)n(C3CCC(F)(F)C3)n2)cnc1N` (stereo not drawn) [Compound 85, 5-(1-(3,3-difluorocyclopentyl)-5-(1-(oxetan-3-yl)piperidin-4-yl)-1H-pyra-zol-3-yl)-3-ethoxypyridin-2-amine], the Ki was 0.99 µM.
`CC(C)Oc1cc(-c2cc(C3CCN(C4COC4)CC3)n(C3CCC(F)(F)C3)n2)cnc1N` (stereo not drawn) [Compound 86, 5-(1-(3,3-difluorocyclopentyl)-5-(1-(oxetan-3-yl)piperidin-4-yl)-1H-pyra-zol-3-yl)-3-isopropoxypyridin-2-amine] gave a Ki of 0.91 µM.
Molecule `Nc1ncc(-c2cc(C3CCN(C4COC4)CC3)n(C3CCC(F)(F)C3)n2)cc1OCC1CC1` (stereo not drawn) [Compound 87, 3-(cyclopropylmethoxy)-5-(1-(3,3-di-fluorocyclopentyl)-5-(1-(oxetan-3-yl)piperidin-4-yl)-1H-pyrazol-3-yl)pyri-din-2-amine] has a Ki of 0.64 µM.
`COc1cc(-c2cc(C3CCN(C4COC4)CC3)n(C3CCCC3)n2)cnc1N` [Compound 88, 5-(1-cyclopentyl-5-(1-(oxetan-3-yl)piperidin-4-yl)-1H-pyrazol-3-yl)-3-methoxypyridin-2-amine] showed a Ki of 0.26 µM.
In the case of `COc1cc(-c2cc(C3CCN(C4COC4)CC3)n(C(C)C)n2)cnc1N` [Compound 89, 5-(1-isopropyl-5-(1-(oxetan-3-yl)pipe-ridin-4-yl)-1H-pyrazol-3-yl)-3-meth-oxypyridin-2-amine], the Ki is reported as 0.14 µM.
Work on `CC(C)Oc1cc(-c2cc(C3CCN(C4COC4)CC3)n(C3CCCC3)n2)cnc1N` [Compound 90, 5-(1-cyclopentyl-5-(1-(oxetan-3-yl)piperidin-4-yl)-1H-pyrazol-3-yl)-3-iso-propoxypyridin-2-amine] yielded a Ki of 0.12 µM.
`CC(C)n1nc(-c2cnc(N)c(C#N)c2)cc1C1CCN(C2COC2)CC1` [Compound 92, 2-amino-5-(1-isopropyl-5-(1-(oxetan-3-yl)piperidin-4-yl)-1H-pyrazol-3-yl)nicotinonitrile] was tested, and the Ki was 0.94 µM.
For `N#Cc1cc(-c2cc(C3CCN(C4COC4)CC3)n(C3CCCC3)n2)cnc1N` [Compound 93, 2-amino-5-(1-cyclopentyl-5-(1-(oxetan-an-3-yl)piperidin-4-yl)-1H-pyrazol-3-yl)nicotinonitrile], the Ki was 0.17 µM.
For `CC(C)n1nc(-c2cnc3c(c2)C(C)(C)CN3)cc1C1CCN(C2COC2)CC1` [Compound 95, 5-(1-isopropyl-5-(1-(oxetan-3-yl)piperidin-4-yl)-1H-pyrazol-3-yl)-3,3-dimethyl-2,3-dihydro-1H-pyrrolo[2,3-b]pyridine], the Ki was 1.2 µM.
In the case of `CC(C)n1nc(-c2cnc(N)c(C3CC3)c2)cc1C1CCN(C2COC2)CC1` [Compound 98, 3-cyclopropyl-5-(1-isopropyl-5-(1-(oxe-tan-3-yl)piperidin-4-yl)-1H-pyra-zol-3-yl)pyridin-2-amine], the Ki is reported as 0.36 µM.
`CC(C)n1nc(-c2cnc(N)c(OC(F)F)c2)cc1C1CCN(C2COC2)CC1` [Compound 99, 3-(difluoromethoxy)-5-(1-isopropyl-5-(1-(oxetan-3-yl)piperidin-4-yl)-1H-pyrazol-3-yl)pyridin-2-amine] gave a Ki of 0.069 µM.
In the case of `CC(C)n1nc(-c2cnc3[nH]cc(C(F)(F)F)c3c2)cc1C1CCN(C2CCC2)CC1` [Compound 101, 5-(5-(1-cyclobutylpiperidin-4-yl)-1-iso-propyl-1H-pyrazol-3-yl)-3-(trifluoro-methyl)-1H-pyrrolo[2,3-b]pyridine], the Ki is reported as 0.001 µM.
In the case of `CC(C)n1nc(-c2cnc(N)c(C(F)(F)F)c2)cc1C1CCN(C2CCC2)CC1` [Compound 102, 5-(5-(1-cyclobutylpiperidin-4-yl)-1-isopropyl-1H-pyrazol-3-yl)-3-(trifluoromethyl)pyridin-2-amine], the Ki is reported as 0.034 µM.
`Nc1ncc(-c2cc([C@H]3[C@@H]4COC[C@@H]43)n(C3CCCC3)n2)cc1Cl` [Compound 105, 5-(5-((1R,5S,6s)-3-oxabicyclo[3.1.0]hexan-6-yl)-1-cyclopentyl-1H-pyra-zol-3-yl)-3-chloropyridin-2-amine] showed a Ki of 0.096 µM.
`Nc1ncc(-c2cc([C@H]3[C@@H]4CNC[C@@H]43)n(CC(F)(F)F)n2)cc1C(F)(F)F` [Compound 107, 5-(5-((1R,5S,6r)-3-azabicyclo[3.1.0]hexan-6-yl)-1-(2,2,2-trifluoroethyl)-1H-pyrazol-3-yl)-3-(trifluoromethyl) pyridin-2-amine] showed a Ki of 0.0024 µM.
